Read-outs that look alike come from different tables or passages of the source.
Experiments:
[1] = tested on: FECD corneal endothelium attached to the Descemet membrane; assay: Endothelial cell apoptosis (TUNEL) in post-keratoplasty FECD specimens, +/- tBHP; type: cell-based, human
Description: Immunocytochemistry. […] After permeabilization, corneas were incubated with goat anti-8-OHdG (1:200; Millipore) followed by incubation with appropriate secondary antibodies. Nuclei were stained with TO-PRO-3 iodide (Molecular Probes). Corneal endothelial tight junctions were detected by rabbit anti-zonula occludens-1 (anti-ZO-1) antibody (1:300; Invitrogen).
An Nrf2-controlled pathway is affected during the endothelial cell loss from surgery and from dystrophic degeneration. […] Nrf2 is a transcription factor that causes a coordinated upregulation of multiple antioxidants, such as glutathione transferases, glutathione peroxidases, peroxiredoxins, thioredoxins, NADH(P)H hydrogenases, heme-oxygenases, glutamate- cysteine ligases. Sulforaphane (SF) and D3T upregulate Nrf2 on a protein level and enhance cellular antioxidant defense. Thus, studies were carried out to investigate the effect of SF on endothelial cell apoptosis with and without pro-oxidants. Post-keratoplasty FECD specimens, containing corneal endothelium attached to the Descemet membrane, were exposed to four experimental conditions: +/− tBHP with is a long acting pro-oxidant and +/−SF. The rate of endothelial cell apoptosis (as detected by TUNEL) in FECD endothelium was 31% and it decreased to 13% (p=1.5E-06) with SF treatment. Under pro-oxidant conditions, SF decreased endothelial cell apoptosis from 60% to 33% (p=0.016) (FIG. 11A). Similarly, D3T diminished endothelial cell apoptosis by decreasing the number of apoptotic cells from 52% to 30% (p<0.05) (FIG. 11B).

[2] = tested on: Nrf2 mRNA expression in HCECi; conditions: H2O2 200 μM, 2 hours; normalized to B2M; non-treated control 1.00±0.05; P=0.004
Description: Human Corneal Endothelial Cell Culture. […] The culture medium of subconfluent cells was replaced with serum-free medium (OptiMEM-1; Invitrogen-Life Technologies) alone or supplemented with H2O2 (200 μM) and incubated for 2 hours at 37° C. At the end of the treatment, cell viability was evaluated by trypan blue staining. Real-time PCR. […] Reverse transcription was performed using a commercially available kit (Promega). […] Real-time PCR reactions were run on an ABI Prism 7500 HT Sequence Detection System (Applied Biosystems). For data analysis, the comparative Ct method was performed.

HCECi = conditions: H2O2 200 μM, 2 hours; P=0.001
Description: Human Corneal Endothelial Cell Culture. […] The culture medium of subconfluent cells was replaced with serum-free medium (OptiMEM-1; Invitrogen-Life Technologies) alone or supplemented with H2O2 (200 μM) and incubated for 2 hours at 37° C. At the end of the treatment, cell viability was evaluated by trypan blue staining.

[3] = tested on: mouse corneal endothelium; conditions: 30 minutes
Description: Corneal Whole Mount Assays. Eight (8-) to 12-wk-old male BALB/c and C57BL/6 (from Taconic Farms, Germantown, NY and our own breeding facility) were used for corneal whole mount assays. All protocols were approved by the Schepens Eye Research Institute Animal Care and Use Committee, and all animals were treated according to the Association for Research in Vision and Ophthalmology Statement for the Use of Animals in Ophthalmic and Vision Research. […] Control corneal buttons were incubated in DMEM only at 37° C. for 0-12 hours. Immunocytochemistry. Immunocytochemistry was performed as previously described.17 Normal, FECD, and PBK corneas were incubated in culture medium containing 100 nM MitoTracker Red CMXRos (Molecular Probes) for 30 minutes at 37° C., then fixed with 3.7% formaldehyde. […] Millipore) followed by incubation with appropriate secondary antibodies. Nuclei were stained with TO-[…] iodide (Molecular Probes). […] Invitrogen). […] Bioscience), propidium iodide (1:200; Invitrogen), and TUNEL assay (In Situ Cell Death Detection Kit, Roche Diagnostics GmbH) according to the manufacturers' instructions. Digital images were obtained using a spectral photometric confocal microscope ([…][…] with LCS 1.3.1 software). Analysis of CE Cell Morphology. […] (variation in cell size) and pleomorphism (variation in cell shape) were then calculated.

[4] = tested on: mouse corneal endothelium; conditions: 1 μM
Description: Corneal Whole Mount Assays. Eight (8-) to 12-wk-old male BALB/c and C57BL/6 (from Taconic Farms, Germantown, NY and our own breeding facility) were used for corneal whole mount assays. All protocols were approved by the Schepens Eye Research Institute Animal Care and Use Committee, and all animals were treated according to the Association for Research in Vision and Ophthalmology Statement for the Use of Animals in Ophthalmic and Vision Research. […] Control corneal buttons were incubated in DMEM only at 37° C. for 0-12 hours. Immunocytochemistry. Immunocytochemistry was performed as previously described.17 Normal, FECD, and PBK corneas were incubated in culture medium containing 100 nM MitoTracker Red CMXRos (Molecular Probes) for 30 minutes at 37° C., then fixed with 3.7% formaldehyde. […] Millipore) followed by incubation with appropriate secondary antibodies. Nuclei were stained with TO-[…] iodide (Molecular Probes). […] Invitrogen). […] Bioscience), propidium iodide (1:200; Invitrogen), and TUNEL assay (In Situ Cell Death Detection Kit, Roche Diagnostics GmbH) according to the manufacturers' instructions. Digital images were obtained using a spectral photometric confocal microscope ([…][…] with LCS 1.3.1 software).

S=c1ccss1 [D3T, 3H-1,2-dithiole-3-thione]
number of apoptotic cells with D3T ([1]; FECD, absence of oxidative stress, 52% without D3T, p<0.05): 30% | effect on percentage of apoptotic cells in FECD ([1]; absence of oxidative stress): decreased the percentage of apoptotic cells

OO [H2O2, hydrogen peroxide]
relative expression of Nrf2 mRNA (mean±SEM) [2]: 0.66±0.02 | level of 8-OHdG relative to control cells (HCECi): 2 fold | CE cell density as measured by ZO-1 labeling ([3]; 0-100 μM): no statistically significant effect | percent of hexagonal cells (pleomorphism) ([3]; 100 μM, P=0.007): declined significantly | mitochondrial staining (MitoTracker CMXRos) ([4]; 1-hour treatment): decline in the mitochondrial density | mitochondrial staining (MitoTracker CMXRos) ([4]; 2-hour treatment, P<0.01): no detectable mitochondrial staining | CE cells with early apoptosis (annexin-V-positive, PI-negative) ([4]; 60 minutes, P<0.01): Approximately 5% | CE cells with early apoptosis (annexin-V-positive, PI-negative) ([4]; 90 minutes, P<0.01): ~11% | mitochondrial staining (MitoTracker CMXRos) ([4]; 90 minutes, P<0.01): significant decrease | late apoptosis (annexin-V-positive, PI-positive) ([4]; 120 minutes, P<0.01): identified

C[S+]([O-])CCCCN=C=S (stereo not shown) [SF, sulforaphane]
rate of endothelial cell apoptosis (as detected by TUNEL) with SF treatment ([1]; FECD endothelium, without pro-oxidant (tBHP-), 31% without SF, p=1.5E-06): 13% | endothelial cell apoptosis with SF under pro-oxidant conditions ([1]; FECD specimens exposed to tBHP, 60% without SF, p=0.016): 33% | decrease of endothelial cell apoptosis in FECD ([1]; SF treatment, without pro-oxidant conditions [tBHP-], p=1.57E-06): 58% | decrease of endothelial cell apoptosis ([1]; specimens exposed to pro-oxidants or tBHP, p=0.016): ≤ 45%

Source: US20160175380A1, “Compositions and Methods of Treatment of Corneal Endothelium Disorders” (The Schepens Eye Research Institute, Inc., priority 2010, published 2016)
